How the values were obtained:
[1] = system: HORVW; test: Greenhouse trial, selective pre-emergence action (PE application), crop plant; assay type: in vivo, Hordeum vulgare, winter barley; conditions: g of AS/ha: (A) 90, (B) 300, (C) mefenpyr 300
Method: (§1) In the standard design of the test, seeds of various broad-leaved weed and weed grass biotypes (origins) were sown in a 8-13 cm diameter pot filled with natural soil of a standard field soil (loamy silt; non-sterile) and covered with a covering soil layer of about 1 cm. The pots were then cultivated in a greenhouse (12-16 h of light, temperature day 20-22° C., night 15-18° C.) until the time of application. The pots were treated on a laboratory track sprayer with spray liquors comprising the compositions according to the invention, mixtures of the prior art or components used individually. Application of the active compounds or active compound combinations formulated as WG, WP, EC or otherwise was carried out at the appropriate growth stages of the plants. The application rate for the spray application was 100-600 l of water/ha. After the treatment, the plants were returned to the greenhouses.
(§2) About 3 weeks after the application, the soil action or/and foliar action was assessed visually according to a scale of 0-100% in comparison to an untreated comparative group: 0%=no noticeable effect compared to the untreated comparative group; 100%=full effect compared to the untreated comparative group. […]

[2] = system: TRZAW; test: as above; assay type: in vivo, Triticum aestivum, winter wheat; conditions: g of AS/ha: (A) 90, (B) 300, (C) mefenpyr 300
Method: as §1, §2

[3] = system: POAAN; test: Greenhouse trial, post-emergence (PO) action against weeds; assay type: in vivo, Poa annua; conditions: PO application; g of AS/ha: (A) 120, (B) 600
Method: as §1, §2

[4] = system: TRZAS; test: Greenhouse trial, pre-sowing application 7 days prior to sowing, crop plant; assay type: in vivo, Triticum aestivum, summer wheat; conditions: g of AS/ha: (A) 90, (B) 300
Method: as §1, §2

[5] = system: ALOMY; test: Greenhouse trial, post-emergence (PO) action against weeds; assay type: in vivo, Alopecurus myosuroides; conditions: PO application; g of AS/ha: (A) 120, (B) 600
Method: as §1, §2

[6] = system: LOLPE; test: Greenhouse trial, PE application with different soil types; assay type: in vivo, Lolium perenne; conditions: g of AS/ha: (A) 90, (B) 300
Method: as §1
(§3) About 3 weeks after the application, the soil action or/and foliar action was assessed visually according to a scale of 0-100% in comparison to an untreated comparative group: 0%=no noticeable effect compared to the untreated comparative group; 100%=full effect compared to the untreated comparative group.
(§4) (notes: the term “seeds” also includes vegetative propagation forms such as, for example, rhizome pieces; abbreviations used: h light=hours of illumination, g of AS/ha=gram of active substance per hectare, l/ha=liter per hectare, S=sensitive, R=resistant) • 1. Pre-emergence action against weeds: seeds of various broad-leaved weed and weed grass biotypes (origins) were sown in a 8-13 cm diameter pot filled with natural soil of a standard field soil (loamy silt; non-sterile) and covered with a covering soil layer of about 1 cm. The pots were then cultivated in a greenhouse (12-16 h of light, temperature day 20-22° C., night 15-18° C.) until the time of application. The pots were treated at the BBCH stage 00-10 of the seeds/plants on a laboratory track sprayer with spray liquors comprising the compositions according to the invention, mixtures or components used individually, as WG, WP, EC or other formulations. The application rate for the spray application was 100-600 l of water/ha. After the treatment, the plants were returned to the greenhouses and, when required, treated with fertilizer and watered. • 2. Post-emergence action against weeds: seeds of various broad-leaved weed and weed grass biotypes (origins) were sown in a 8-13 cm diameter pot filled with natural soil of a standard field soil (loamy silt; non-sterile) and covered with a covering soil layer of about 1 cm. The pots were then cultivated in a greenhouse (12-16 h of light, temperature day 20-22° C., night 15-18° C.) until the time of application. […]

[7] = system: TRZAW; test: Greenhouse trial, incorporation of active compound into the soil covering layer, crop plant; assay type: in vivo, Triticum aestivum, winter wheat; conditions: g of AS/ha: (A) 90, (B) 300, (C) mefenpyr 300
Method: as §1, §2

[8] = system: AVEFA; test: Greenhouse trial, post-emergence (PO) action against weeds; assay type: in vivo, Avena fatua; conditions: PO application; g of AS/ha: (A) 120, (B) 600
Method: as §1, §2

[9] = system: MATCH; test: Greenhouse trial, PE application on sensitive and resistant biotypes; assay type: in vivo, Matricaria chamomilla; conditions: g of AS/ha: (A) 120, (B) 600, iodosulfuron 10; for MATCH resistant activity (visual, scale 0-100%): resistant biotype; for MATCH sensitive activity (visual, scale 0-100%): sensitive biotype
Method: as §1, §3
(§5) (notes: the term “seeds” also includes vegetative propagation forms such as, for example, rhizome pieces; abbreviations used: h light=hours of illumination, g of AS/ha=gram of active substance per hectare, l/ha=liter per hectare, S=sensitive, R=resistant) • 1. Pre-emergence action against weeds: seeds of various broad-leaved weed and weed grass biotypes (origins) were sown in a 8-13 cm diameter pot filled with natural soil of a standard field soil (loamy silt; non-sterile) and covered with a covering soil layer of about 1 cm. The pots were then cultivated in a greenhouse (12-16 h of light, temperature day 20-22° C., night 15-18° C.) until the time of application. The pots were treated at the BBCH stage 00-10 of the seeds/plants on a laboratory track sprayer with spray liquors comprising the compositions according to the invention, mixtures or components used individually, as WG, WP, EC or other formulations. The application rate for the spray application was 100-600 l of water/ha. After the treatment, the plants were returned to the greenhouses and, when required, treated with fertilizer and watered. • 2. Post-emergence action against weeds: seeds of various broad-leaved weed and weed grass biotypes (origins) were sown in a 8-13 cm diameter pot filled with natural soil of a standard field soil (loamy silt; non-sterile) and covered with a covering soil layer of about 1 cm. The pots were then cultivated in a greenhouse (12-16 h of light, temperature day 20-22° C., night 15-18° C.) until the time of application. The pots were treated at various BBCH stages between 11-25 of the seeds/plants, i.e. generally between two to three weeks after the start of the cultivation, on a laboratory track sprayer with spray liquors comprising the compositions according to the invention, mixtures or components used individually, as WG, WP, EC or other formulations. The application rate for the spray application was 100-600 l of water/ha. After the treatment, the plants were returned to the greenhouses and, when required, treated with fertilizer and watered. • 3. Pre-emergence action against weeds with and without incorporation of active compound: seeds of various broad-leaved weed and weed grass biotypes (origins) were sown in a 8-13 cm diameter pot filled with natural soil of a standard field soil (loamy silt; non-sterile). […]

[10] = system: VIOAR; test: Greenhouse trial, pre-emergence (PE) soil application, action against weeds; assay type: in vivo, Viola arvensis; conditions: g of AS/ha: (A) 90, (B) 300, (C) mefenpyr 300, about 3 weeks after application
Method: as §1, §2

[11] = system: AVEFA; test: Greenhouse trial, PE application (comparison with pre-sowing method), weeds; assay type: in vivo, Avena fatua; conditions: g of AS/ha: (A) 90, (B) 300
Method: as §1, §2

[12] = system: STEME; test: Greenhouse trial, pre-sowing application 7 days prior to sowing, weeds; assay type: in vivo, Stellaria media; conditions: g of AS/ha: (A) 90, (B) 300
Method: as §1, §2

[13] = system: AVEFA; test: as above; assay type: in vivo, Avena fatua; conditions: g of AS/ha: (A) 90, (B) 300
Method: as §1, §2

[14] = system: VIOAR; test: Greenhouse trial, incorporation of active compound into the soil covering layer, action against weeds; assay type: in vivo, Viola arvensis; conditions: g of AS/ha: (A) 90, (B) 300, (C) mefenpyr 300
Method: as §1, §2

[15] = system: HORVS; test: Greenhouse trial, selective post-emergence (PO) action, crop plant; assay type: in vivo, Hordeum vulgare, summer barley; conditions: PO application, g of AS/ha: (A) 120, (B) 600
Method: as §1, §2

[16] = system: TRZAS; test: Greenhouse trial, selective pre-emergence action (PE application), crop plant; assay type: in vivo, Triticum aestivum, summer wheat
Method: as §1, §3, §4

[17] = system: HORVW; test: Greenhouse trial, incorporation of active compound into the soil covering layer, crop plant; assay type: in vivo, Hordeum vulgare, winter barley; conditions: g of AS/ha: (A) 90, (B) 300, (C) mefenpyr 300
Method: as §1, §2

[18] = system: STEME; test: Greenhouse trial, PE application (comparison with pre-sowing method), weeds; assay type: in vivo, Stellaria media; conditions: g of AS/ha: (A) 90, (B) 300
Method: as §1, §2

[19] = system: STEME; test: Greenhouse trial, PE application on sensitive and resistant biotypes; assay type: in vivo, Stellaria media; conditions: g of AS/ha: (A) 120, (B) 600, iodosulfuron 10; for STEME resistant activity (visual, scale 0-100%): resistant biotype; for STEME sensitive activity (visual, scale 0-100%): sensitive biotype
Method: as §1, §3, §5

[20] = system: TRZAS; test: Greenhouse trial, incorporation of active compound into the soil covering layer, crop plant; assay type: in vivo, Triticum aestivum, summer wheat; conditions: g of AS/ha: (A) 90, (B) 300, (C) mefenpyr 300
Method: as §1, §2

[21] = g of AS/ha: (A) 90, (B) 300, (C) mefenpyr 300
[22] = g of AS/ha: (A) 90, (B) 300, Table 3

Row | Compound | HORVW activity (visual, scale 0-100%) [1] [%] | TRZAW activity (visual, scale 0-100%) [2] [%] | POAAN activity (visual, scale 0-100%) [3] [%] | TRZAS activity (visual, scale 0-100%) [4] [%] | ALOMY activity (visual, scale 0-100%) [5] [%] | LOLPE IU soil activity (visual, scale 0-100%) [6] [%] | LOLPE IU/EC73 soil activity (visual, scale 0-100%) [6] [%] | TRZAW activity (visual, scale 0-100%) [7] [%] | AVEFA activity (visual, scale 0-100%) [8] [%] | MATCH resistant activity (visual, scale 0-100%) [9] [%] | MATCH sensitive activity (visual, scale 0-100%) [9] [%] | VIOAR activity (visual, scale 0-100%) [10] [%] | AVEFA activity (visual, scale 0-100%) [11] [%] | STEME activity (visual, scale 0-100%) [12] [%] | AVEFA activity (visual, scale 0-100%) [13] [%] | VIOAR activity (visual, scale 0-100%) [14] [%] | HORVS activity (visual, scale 0-100%) [15] [%] | TRZAS activity (visual, scale 0-100%) [16, 21] [%] | STEME resistant activity (visual, scale 0-100%) [19] [%] | STEME sensitive activity (visual, scale 0-100%) [19] [%] | further results
1 | CC(C)N(C(=O)COc1nnc(C(F)(F)F)s1)c1ccc(F)cc1 [(A) flufenacet, N-(4-fluorophenyl)-N-(1-methylethyl)-2-[[5-(trifluoromethyl)-1,3,4-thiadiazol-2-yl]oxy]acetamide] | 20 | 30 | 60 | 50 | 65 | 95 | 74 | 60 | 70 | 50 | 50 | 0 | 80 | 35 | 70 | 0 | 40 | 20 | 0 | 0 | TRZAS activity (visual, scale 0-100%) [16, 22]: 20%; HORVW activity (visual, scale 0-100%) [17]: 60%; STEME activity (visual, scale 0-100%) [18]: 0%; TRZAS activity (visual, scale 0-100%) [20]: 50%
2 | COc1nc(C)nc(NC(=O)NS(=O)(=O)c2cc(I)ccc2C(=O)O)n1 [(C) iodosulfuron] |  |  |  |  |  |  |  |  |  | 60 | 100 |  |  |  |  |  |  |  | 40 | 90 | 
3 | CCCN(CCC)c1c([N+](=O)[O-])cc(C(F)(F)F)cc1[N+](=O)[O-] [(B) trifluralin, 2,6-dinitro-N,N-dipropyl-4-(trifluoromethyl)benzenamine] | 0 | 20 | 40 | 20 | 30 | 55 | 0 | 100 | 20 | 20 | 20 | 0 | 70 | 30 | 60 | 10 | 20 | 0 | 20 | 20 | TRZAS activity (visual, scale 0-100%) [16, 22]: 0%; HORVW activity (visual, scale 0-100%) [17]: 60%; STEME activity (visual, scale 0-100%) [18]: 10%; TRZAS activity (visual, scale 0-100%) [20]: 90%

From patent US20110152085A1, “Herbicidal Compositions Comprising Flufenacet” (BAYER CROPSCIENCE AG, priority 2009, published 2011)
